# From ChEMBL document CHEMBL1201862, “PubChem BioAssay data set” (2004)
#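 Five compound concentrations were applied to cells in 96-well plates for 48 hours; endpoints were derived by simple linear interpolation of the resulting dose-response curve. GI50: concentration for 50% inhibition of growth.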 Activity calls are given as the source filed them. Cut-off read from the data, not from the text of the source: active = GI50 up to about 1.1 µM and inactive = higher.
# Columns and labels:
# Assay in all cases: growth of human tumour cells (NCI), 48 h
# U-251 = tested on: U-251
# SNB-19 = tested on: SNB-19
# K562 = tested on: K562
# Malme-3M = tested on: Malme-3M
# SK-MEL-28 = tested on: SK-MEL-28
# UACC-257 = tested on: UACC-257
# NCI/ADR-RES = tested on: NCI/ADR-RES
# NCI-H23 = tested on: NCI-H23
# UO-31 = tested on: UO-31
# BT-549 = tested on: BT-549
# SF-268 = tested on: SF-268
# LOX IMVI = tested on: LOX IMVI
# SR = tested on: SR
# MOLT-4 = tested on: MOLT-4
# SN12C = tested on: SN12C
# HCT-15 = tested on: HCT-15
# A498 = tested on: A498
# CAKI-1 = tested on: CAKI-1
# HOP-92 = tested on: HOP-92
# RXF 393 = tested on: RXF 393
Compound,GI50 (U-251),GI50 (SNB-19),GI50 (K562),GI50 (Malme-3M),GI50 (SK-MEL-28),GI50 (UACC-257),GI50 (NCI/ADR-RES),GI50 (NCI-H23),GI50 (UO-31),GI50 (BT-549),GI50 (SF-268),GI50 (LOX IMVI),GI50 (SR),GI50 (MOLT-4),GI50 (SN12C),GI50 (HCT-15) [µM],GI50 (A498),GI50 (CAKI-1),GI50 (HOP-92),GI50 (RXF 393)
CC1Oc2c(c(=O)oc3ccccc23)[C@@]1(C)CC1C[C@H](C)C(=O)O1 (some centres not stated),35.1 µM (inactive),62.4 µM (inactive),16.8 µM (inactive),19.5 µM (inactive),18.7 µM (inactive),35.2 µM (inactive),32.7 µM (inactive),19.1 µM (inactive),27.6 µM (inactive),30.8 µM (inactive),18.3 µM (inactive),27.4 µM (inactive),> 10 µM (inactive),10.9 µM (inactive),> 10 µM (inactive),18.3,> 100 µM (inactive),19.1 µM (inactive),–,–
C=CCN1C(=O)C=C(c2ccccc2)n2ncc3cccc1c32,> 100 µM (inactive),> 100 µM (inactive),–,> 100 µM (inactive),> 100 µM (inactive),> 100 µM (inactive),> 100 µM (inactive),> 100 µM (inactive),> 100 µM (inactive),> 100 µM (inactive),> 100 µM (inactive),> 100 µM (inactive),> 100 µM (inactive),> 100 µM (inactive),> 100 µM (inactive),> 100,44.3 µM (inactive),> 100 µM (inactive),27.7 µM (inactive),–
CCOC(=O)c1c(-c2ccc(Cl)cc2)c(C#N)c(=S)n(C2OC(COC(C)=O)C(OC(C)=O)C(OC(C)=O)C2OC(C)=O)c1-c1ccccc1 (configuration not stated),> 100 µM (inactive),> 100 µM (inactive),> 100 µM (inactive),> 100 µM (inactive),> 100 µM (inactive),> 100 µM (inactive),> 100 µM (inactive),> 100 µM (inactive),> 100 µM (inactive),> 100 µM (inactive),> 100 µM (inactive),> 100 µM (inactive),> 100 µM (inactive),> 100 µM (inactive),> 100 µM (inactive),> 100,–,> 100 µM (inactive),12.7 µM (inactive),> 100 µM (inactive)
COc1ccc(C2C(C#N)=C(S)N(C3OC(COC(C)=O)C(OC(C)=O)C(OC(C)=O)C3OC(C)=O)C(c3ccccc3)=C2C(C)=O)cc1 (configuration not stated),> 100 µM (inactive),> 100 µM (inactive),37.5 µM (inactive),> 100 µM (inactive),> 100 µM (inactive),> 100 µM (inactive),> 100 µM (inactive),> 100 µM (inactive),21.6 µM (inactive),> 100 µM (inactive),> 100 µM (inactive),> 100 µM (inactive),–,64.4 µM (inactive),> 100 µM (inactive),> 100,> 100 µM (inactive),> 100 µM (inactive),> 100 µM (inactive),78.9 µM (inactive)
Cc1ccc(S(=O)(=O)n2cc(/C=C/C#N)c(-c3cn(S(=O)(=O)c4ccc(C)cc4)cc3-c3cn(S(=O)(=O)c4ccc(C)cc4)cc3/C=C/C#N)c2)cc1,–,> 100 µM (inactive),57.4 µM (inactive),> 100 µM (inactive),–,> 100 µM (inactive),> 100 µM (inactive),87.7 µM (inactive),38.4 µM (inactive),> 100 µM (inactive),> 100 µM (inactive),93.8 µM (inactive),> 100 µM (inactive),–,> 100 µM (inactive),> 100,> 100 µM (inactive),> 100 µM (inactive),43.6 µM (inactive),–
COc1nc(-c2c[nH]c3ccccc23)cnc1N,31 µM (inactive),66.4 µM (inactive),33.6 µM (inactive),–,25.5 µM (inactive),22.4 µM (inactive),38.5 µM (inactive),–,21.2 µM (inactive),33.7 µM (inactive),23.6 µM (inactive),25.3 µM (inactive),15 µM (inactive),2.56 µM (inactive),5.87 µM (inactive),22.8,15.1 µM (inactive),24.6 µM (inactive),0.0306 µM (active),–
CO/C(N)=C(C#N)/N=C/c1cccs1,74 µM (inactive),> 100 µM (inactive),42.2 µM (inactive),35.3 µM (inactive),45.4 µM (inactive),32.5 µM (inactive),98.2 µM (inactive),> 100 µM (inactive),> 100 µM (inactive),95.1 µM (inactive),> 100 µM (inactive),42.6 µM (inactive),–,62.8 µM (inactive),> 100 µM (inactive),45.7,33.2 µM (inactive),24.3 µM (inactive),> 100 µM (inactive),> 100 µM (inactive)
CO/C(N)=C(C#N)/N=C/c1ccco1,> 100 µM (inactive),–,> 100 µM (inactive),> 100 µM (inactive),> 100 µM (inactive),> 100 µM (inactive),> 100 µM (inactive),> 100 µM (inactive),> 100 µM (inactive),> 100 µM (inactive),> 100 µM (inactive),> 100 µM (inactive),–,> 100 µM (inactive),> 100 µM (inactive),> 100,> 100 µM (inactive),> 100 µM (inactive),> 100 µM (inactive),> 100 µM (inactive)
COc1ccc2c(c1)CN1C(=N2)CSC1c1cc([N+](=O)[O-])ccc1Cl (configuration not stated),40.6 µM (inactive),52.6 µM (inactive),10.8 µM (inactive),55.8 µM (inactive),–,38.1 µM (inactive),25.1 µM (inactive),29 µM (inactive),41.1 µM (inactive),22.5 µM (inactive),46.6 µM (inactive),31.3 µM (inactive),33.8 µM (inactive),29.2 µM (inactive),65.6 µM (inactive),30.6,–,27.3 µM (inactive),37.4 µM (inactive),26.2 µM (inactive)
O=S(=O)(O)c1ccc2c(/N=N/c3ccc(Cl)cc3)c(O)ccc2c1,> 100 µM (inactive),> 100 µM (inactive),> 100 µM (inactive),> 100 µM (inactive),> 100 µM (inactive),> 100 µM (inactive),> 100 µM (inactive),> 100 µM (inactive),> 100 µM (inactive),> 100 µM (inactive),> 100 µM (inactive),> 100 µM (inactive),–,> 100 µM (inactive),> 100 µM (inactive),> 100,> 100 µM (inactive),> 100 µM (inactive),> 100 µM (inactive),> 100 µM (inactive)
Nc1nc(N)c2ncn(Cc3c(Cl)cccc3Cl)c2n1,> 100 µM (inactive),> 100 µM (inactive),–,> 100 µM (inactive),> 100 µM (inactive),> 100 µM (inactive),50.5 µM (inactive),> 100 µM (inactive),> 100 µM (inactive),> 100 µM (inactive),> 100 µM (inactive),> 100 µM (inactive),–,> 100 µM (inactive),> 100 µM (inactive),> 100,> 100 µM (inactive),> 100 µM (inactive),> 100 µM (inactive),> 100 µM (inactive)
Brc1ccc(-c2[nH]c3ccccc3c2/C=N\Nc2ccc(-c3nc4ccccc4[nH]3)cc2)cc1,< 0.01 µM (active),< 0.01 µM (active),< 0.01 µM (active),< 0.01 µM (active),–,3.17 µM (inactive),< 0.01 µM (active),< 0.01 µM (active),< 0.01 µM (active),2.08 µM (inactive),< 0.01 µM (active),< 0.01 µM (active),< 0.01 µM (active),< 0.01 µM (active),< 0.01 µM (active),< 0.01,–,< 0.01 µM (active),–,< 0.01 µM (active)
COC(=O)C1=C(C)NC(C)=C(C(=O)OC)C1c1ccc(N=O)cc1,17.4 µM (inactive),38.7 µM (inactive),1.07 µM (active),11.5 µM (inactive),17.1 µM (inactive),8.91 µM (inactive),20.8 µM (inactive),16.2 µM (inactive),13.2 µM (inactive),8.87 µM (inactive),22.1 µM (inactive),5.9 µM (inactive),0.776 µM (active),3.33 µM (inactive),19.5 µM (inactive),9.53,–,8.3 µM (inactive),2.54 µM (inactive),8.22 µM (inactive)
[O-][N+](CCO)(CCO)c1ncnc2[nH]cnc12,> 100 µM (inactive),> 100 µM (inactive),> 100 µM (inactive),> 100 µM (inactive),> 100 µM (inactive),> 100 µM (inactive),> 100 µM (inactive),> 100 µM (inactive),> 100 µM (inactive),> 100 µM (inactive),> 100 µM (inactive),> 100 µM (inactive),> 100 µM (inactive),> 100 µM (inactive),> 100 µM (inactive),> 100,> 100 µM (inactive),> 100 µM (inactive),–,> 100 µM (inactive)
COC(=O)CCNC(=O)OCc1ccccc1,> 100 µM (inactive),> 100 µM (inactive),> 100 µM (inactive),> 100 µM (inactive),> 100 µM (inactive),> 100 µM (inactive),> 100 µM (inactive),> 100 µM (inactive),> 100 µM (inactive),> 100 µM (inactive),> 100 µM (inactive),> 100 µM (inactive),> 100 µM (inactive),> 100 µM (inactive),> 100 µM (inactive),> 100,> 100 µM (inactive),> 100 µM (inactive),–,–
